Reference: ChEMBL document CHEMBL1150976, “The selectivity of protein kinase inhibitors: a further update” (Biochem J, 2007)

Assays:
[1] = target: T1, Inhibitor of nuclear factor kappa-B kinase subunit epsilon (Homo sapiens) (UniProt Q14164); experiment: Percentage IKKepsilon activity remaining in the presence of 0.01uM inhibitor; settings: filed as antagonist
T1 sequence (whole entry): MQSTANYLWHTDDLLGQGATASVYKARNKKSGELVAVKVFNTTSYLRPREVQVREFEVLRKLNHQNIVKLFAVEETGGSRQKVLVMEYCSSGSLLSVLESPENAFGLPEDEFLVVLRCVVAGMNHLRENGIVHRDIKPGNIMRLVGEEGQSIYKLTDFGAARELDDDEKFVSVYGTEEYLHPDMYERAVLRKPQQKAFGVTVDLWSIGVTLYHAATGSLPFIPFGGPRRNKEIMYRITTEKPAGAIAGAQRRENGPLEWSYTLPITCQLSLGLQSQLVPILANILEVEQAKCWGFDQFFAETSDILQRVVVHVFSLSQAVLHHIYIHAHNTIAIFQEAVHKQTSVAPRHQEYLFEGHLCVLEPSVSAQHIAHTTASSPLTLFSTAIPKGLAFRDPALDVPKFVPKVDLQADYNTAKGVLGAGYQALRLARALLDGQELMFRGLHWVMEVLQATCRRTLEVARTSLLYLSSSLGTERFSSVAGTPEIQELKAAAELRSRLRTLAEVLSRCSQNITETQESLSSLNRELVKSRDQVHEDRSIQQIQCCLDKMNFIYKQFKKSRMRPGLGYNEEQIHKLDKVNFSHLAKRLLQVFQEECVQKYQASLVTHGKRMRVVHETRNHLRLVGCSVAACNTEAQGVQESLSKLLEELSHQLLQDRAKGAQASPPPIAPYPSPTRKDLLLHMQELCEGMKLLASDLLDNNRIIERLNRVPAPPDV

[2] = target: RAC-alpha serine/threonine-protein kinase (Homo sapiens) (UniProt P31749); experiment: Percentage PKBalpha activity remaining in the presence of 3uM inhibitor
Chain of RAC-alpha serine/threonine-protein kinase (Homo sapiens) (P31749 whole entry): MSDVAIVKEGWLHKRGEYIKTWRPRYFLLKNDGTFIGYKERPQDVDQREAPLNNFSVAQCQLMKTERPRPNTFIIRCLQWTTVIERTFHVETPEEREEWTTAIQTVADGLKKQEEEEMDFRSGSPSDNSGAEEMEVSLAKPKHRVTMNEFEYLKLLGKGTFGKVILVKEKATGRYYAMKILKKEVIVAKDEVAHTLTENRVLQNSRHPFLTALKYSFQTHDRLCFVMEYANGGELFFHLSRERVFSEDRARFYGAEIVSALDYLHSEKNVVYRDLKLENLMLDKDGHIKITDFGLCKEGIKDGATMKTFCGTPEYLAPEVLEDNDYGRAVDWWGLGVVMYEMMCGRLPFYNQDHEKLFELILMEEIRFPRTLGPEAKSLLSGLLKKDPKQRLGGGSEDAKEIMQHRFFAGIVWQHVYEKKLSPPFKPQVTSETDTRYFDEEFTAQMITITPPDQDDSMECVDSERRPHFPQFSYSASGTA

Aurora kinase B [3] = target: T2, Aurora kinase B (Homo sapiens, UniProt Q96GD4); experiment: Percentage Aurora B activity remaining in the presence of 3uM inhibitor
T2 sequence (Q96GD4 whole entry): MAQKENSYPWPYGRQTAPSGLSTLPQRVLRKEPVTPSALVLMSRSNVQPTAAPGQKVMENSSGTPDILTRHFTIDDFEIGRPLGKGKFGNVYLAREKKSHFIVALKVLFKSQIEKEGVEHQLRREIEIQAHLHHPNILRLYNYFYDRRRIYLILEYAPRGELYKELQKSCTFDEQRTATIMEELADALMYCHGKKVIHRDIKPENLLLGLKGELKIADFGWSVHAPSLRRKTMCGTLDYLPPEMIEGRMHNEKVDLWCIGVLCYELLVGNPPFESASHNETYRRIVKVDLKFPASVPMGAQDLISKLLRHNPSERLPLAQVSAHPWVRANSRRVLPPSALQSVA

[4] = target: Serine/threonine-protein kinase Nek6 (Homo sapiens) (UniProt Q9HC98); experiment: Percentage NEK6 activity remaining in the presence of 2uM inhibitor
Chain of Serine/threonine-protein kinase Nek6 (Homo sapiens) (Q9HC98 whole entry): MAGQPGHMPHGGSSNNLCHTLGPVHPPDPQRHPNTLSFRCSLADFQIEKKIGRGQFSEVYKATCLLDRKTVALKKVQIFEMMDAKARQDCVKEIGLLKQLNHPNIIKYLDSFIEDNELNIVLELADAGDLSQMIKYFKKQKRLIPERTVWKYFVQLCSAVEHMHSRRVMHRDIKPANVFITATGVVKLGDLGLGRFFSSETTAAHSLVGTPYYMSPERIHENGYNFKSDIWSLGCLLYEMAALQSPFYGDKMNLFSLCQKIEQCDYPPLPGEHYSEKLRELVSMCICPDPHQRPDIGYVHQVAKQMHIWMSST

[5] = target: T3, Eukaryotic elongation factor 2 kinase (Homo sapiens) (UniProt O00418); experiment: Percentage EF2K activity remaining in the presence of 2uM inhibitor
T3 sequence (whole entry): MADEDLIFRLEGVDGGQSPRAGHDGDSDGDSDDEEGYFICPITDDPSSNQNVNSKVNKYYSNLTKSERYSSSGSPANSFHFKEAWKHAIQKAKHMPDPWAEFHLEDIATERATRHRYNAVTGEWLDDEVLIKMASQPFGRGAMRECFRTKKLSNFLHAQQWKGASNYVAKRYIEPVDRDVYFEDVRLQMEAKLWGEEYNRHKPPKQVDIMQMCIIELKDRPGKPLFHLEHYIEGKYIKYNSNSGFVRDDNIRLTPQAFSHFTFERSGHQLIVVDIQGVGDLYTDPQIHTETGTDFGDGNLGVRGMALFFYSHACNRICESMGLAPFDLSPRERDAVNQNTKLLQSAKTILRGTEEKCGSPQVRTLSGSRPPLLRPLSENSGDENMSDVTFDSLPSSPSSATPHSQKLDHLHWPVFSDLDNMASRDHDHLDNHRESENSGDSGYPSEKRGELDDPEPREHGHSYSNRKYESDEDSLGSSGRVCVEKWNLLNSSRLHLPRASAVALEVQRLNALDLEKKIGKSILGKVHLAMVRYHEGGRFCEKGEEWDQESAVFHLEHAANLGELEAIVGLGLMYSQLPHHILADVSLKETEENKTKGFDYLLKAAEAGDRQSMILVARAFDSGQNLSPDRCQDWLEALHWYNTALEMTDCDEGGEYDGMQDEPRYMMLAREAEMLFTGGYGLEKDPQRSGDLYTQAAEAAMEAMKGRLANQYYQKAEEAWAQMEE

[6] = target: T4, Serine/threonine-protein kinase 3 (Homo sapiens) (UniProt Q13188); experiment: Percentage MST2 activity remaining in the presence of 2uM inhibitor; settings: filed as antagonist
T4 sequence (whole entry): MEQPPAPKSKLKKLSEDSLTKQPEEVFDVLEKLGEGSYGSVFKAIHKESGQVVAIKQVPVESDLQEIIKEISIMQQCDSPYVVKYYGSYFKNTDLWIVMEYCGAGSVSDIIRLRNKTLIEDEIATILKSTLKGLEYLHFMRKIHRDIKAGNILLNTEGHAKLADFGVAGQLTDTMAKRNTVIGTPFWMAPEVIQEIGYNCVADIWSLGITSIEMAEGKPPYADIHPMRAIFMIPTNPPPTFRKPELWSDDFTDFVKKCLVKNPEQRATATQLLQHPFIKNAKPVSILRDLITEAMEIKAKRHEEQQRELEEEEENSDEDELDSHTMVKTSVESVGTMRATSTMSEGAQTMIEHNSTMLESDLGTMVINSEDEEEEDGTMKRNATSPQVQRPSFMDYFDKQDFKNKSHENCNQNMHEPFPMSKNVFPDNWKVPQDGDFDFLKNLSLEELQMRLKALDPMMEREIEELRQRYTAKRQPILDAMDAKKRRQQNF

[7] = target: Rho-associated protein kinase 2 (Homo sapiens) (UniProt O75116); experiment: Percentage ROCK2 activity remaining in the presence of 2uM inhibitor
Chain of Rho-associated protein kinase 2 (Homo sapiens) (O75116 whole entry, looked up): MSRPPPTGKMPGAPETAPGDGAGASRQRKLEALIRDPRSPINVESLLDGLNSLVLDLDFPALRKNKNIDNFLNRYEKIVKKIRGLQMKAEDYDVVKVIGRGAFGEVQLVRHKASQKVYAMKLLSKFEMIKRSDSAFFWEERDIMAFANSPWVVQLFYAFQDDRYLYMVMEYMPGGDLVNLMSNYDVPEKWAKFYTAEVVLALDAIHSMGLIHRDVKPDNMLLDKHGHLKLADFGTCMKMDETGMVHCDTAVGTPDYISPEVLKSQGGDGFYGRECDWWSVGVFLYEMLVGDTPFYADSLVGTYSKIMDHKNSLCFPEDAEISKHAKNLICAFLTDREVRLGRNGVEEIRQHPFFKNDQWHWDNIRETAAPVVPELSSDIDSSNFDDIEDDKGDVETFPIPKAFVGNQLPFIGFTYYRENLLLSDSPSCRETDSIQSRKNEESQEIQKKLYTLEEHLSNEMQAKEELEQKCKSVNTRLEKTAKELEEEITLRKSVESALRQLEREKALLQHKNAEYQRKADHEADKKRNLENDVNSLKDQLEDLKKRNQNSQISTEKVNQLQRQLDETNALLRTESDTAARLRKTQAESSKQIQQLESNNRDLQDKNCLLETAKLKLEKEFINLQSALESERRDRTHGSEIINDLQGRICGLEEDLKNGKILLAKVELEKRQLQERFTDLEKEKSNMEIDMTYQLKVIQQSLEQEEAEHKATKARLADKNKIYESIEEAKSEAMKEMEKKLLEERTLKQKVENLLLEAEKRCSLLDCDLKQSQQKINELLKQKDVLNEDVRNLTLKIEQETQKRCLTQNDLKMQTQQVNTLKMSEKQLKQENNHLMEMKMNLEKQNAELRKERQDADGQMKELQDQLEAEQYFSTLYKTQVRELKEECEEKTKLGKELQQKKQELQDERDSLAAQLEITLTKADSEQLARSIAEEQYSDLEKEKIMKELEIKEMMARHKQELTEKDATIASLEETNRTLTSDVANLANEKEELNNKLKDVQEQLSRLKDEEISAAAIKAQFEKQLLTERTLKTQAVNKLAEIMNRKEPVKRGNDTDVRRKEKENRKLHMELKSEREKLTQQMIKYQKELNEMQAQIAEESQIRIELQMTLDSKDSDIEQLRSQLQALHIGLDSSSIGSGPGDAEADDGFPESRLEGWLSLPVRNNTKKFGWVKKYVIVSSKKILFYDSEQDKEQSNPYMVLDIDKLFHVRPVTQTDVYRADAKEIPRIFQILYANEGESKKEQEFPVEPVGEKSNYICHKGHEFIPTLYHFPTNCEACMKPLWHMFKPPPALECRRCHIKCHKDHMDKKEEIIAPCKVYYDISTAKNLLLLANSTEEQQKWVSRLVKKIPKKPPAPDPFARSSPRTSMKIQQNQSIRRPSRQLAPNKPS

Aurora kinase B [8] = target: T2, Aurora kinase B; experiment: Percentage Aurora B activity remaining in the presence of 2uM inhibitor
[9] = target: MAP/microtubule affinity-regulating kinase 3 (Homo sapiens) (UniProt P27448); experiment: Percentage MARK3 activity remaining in the presence of 2uM inhibitor
Chain of MAP/microtubule affinity-regulating kinase 3 (Homo sapiens) (P27448 whole entry, looked up): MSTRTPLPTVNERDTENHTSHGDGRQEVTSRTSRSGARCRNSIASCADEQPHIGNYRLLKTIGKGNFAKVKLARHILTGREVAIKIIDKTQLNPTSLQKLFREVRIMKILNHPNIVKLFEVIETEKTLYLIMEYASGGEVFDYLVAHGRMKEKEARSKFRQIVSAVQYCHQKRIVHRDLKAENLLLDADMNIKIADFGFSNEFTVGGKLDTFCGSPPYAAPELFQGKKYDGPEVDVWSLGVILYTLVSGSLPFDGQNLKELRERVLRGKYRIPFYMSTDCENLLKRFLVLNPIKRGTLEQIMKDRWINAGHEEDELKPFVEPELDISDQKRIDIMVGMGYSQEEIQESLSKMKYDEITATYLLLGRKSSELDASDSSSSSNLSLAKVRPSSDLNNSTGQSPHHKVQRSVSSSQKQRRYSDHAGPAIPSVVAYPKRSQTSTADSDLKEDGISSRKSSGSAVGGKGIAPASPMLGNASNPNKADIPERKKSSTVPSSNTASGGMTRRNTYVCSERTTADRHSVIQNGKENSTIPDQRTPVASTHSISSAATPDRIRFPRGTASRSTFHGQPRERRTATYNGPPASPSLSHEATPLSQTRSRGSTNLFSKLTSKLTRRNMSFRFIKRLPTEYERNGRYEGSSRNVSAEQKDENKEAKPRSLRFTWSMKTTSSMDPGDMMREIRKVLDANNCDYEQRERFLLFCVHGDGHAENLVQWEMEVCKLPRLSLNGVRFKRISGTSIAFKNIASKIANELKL

[10] = target: T5, Mitogen-activated protein kinase 15 (Homo sapiens) (UniProt Q8TD08); experiment: Percentage ERK8 activity remaining in the presence of 2uM inhibitor; settings: filed as antagonist
T5 sequence (whole entry): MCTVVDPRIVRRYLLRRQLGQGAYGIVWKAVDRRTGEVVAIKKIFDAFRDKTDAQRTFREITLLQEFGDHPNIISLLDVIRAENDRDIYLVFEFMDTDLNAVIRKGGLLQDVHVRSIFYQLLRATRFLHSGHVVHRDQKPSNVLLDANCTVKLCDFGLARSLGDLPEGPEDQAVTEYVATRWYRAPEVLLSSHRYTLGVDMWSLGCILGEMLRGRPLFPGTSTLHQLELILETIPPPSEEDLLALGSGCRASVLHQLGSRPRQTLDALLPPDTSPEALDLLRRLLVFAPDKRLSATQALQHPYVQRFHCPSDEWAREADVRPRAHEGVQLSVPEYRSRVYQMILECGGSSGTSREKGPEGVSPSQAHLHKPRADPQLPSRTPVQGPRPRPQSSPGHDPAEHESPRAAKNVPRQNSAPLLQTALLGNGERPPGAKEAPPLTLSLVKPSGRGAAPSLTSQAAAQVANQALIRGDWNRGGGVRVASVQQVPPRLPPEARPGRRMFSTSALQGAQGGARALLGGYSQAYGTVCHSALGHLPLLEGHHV

[11] = target: Mitogen-activated protein kinase 8 (Homo sapiens, UniProt P45983); experiment: Percentage JNK1 activity remaining in the presence of 25uM inhibitor
Chain of Mitogen-activated protein kinase 8 (P45983 whole entry): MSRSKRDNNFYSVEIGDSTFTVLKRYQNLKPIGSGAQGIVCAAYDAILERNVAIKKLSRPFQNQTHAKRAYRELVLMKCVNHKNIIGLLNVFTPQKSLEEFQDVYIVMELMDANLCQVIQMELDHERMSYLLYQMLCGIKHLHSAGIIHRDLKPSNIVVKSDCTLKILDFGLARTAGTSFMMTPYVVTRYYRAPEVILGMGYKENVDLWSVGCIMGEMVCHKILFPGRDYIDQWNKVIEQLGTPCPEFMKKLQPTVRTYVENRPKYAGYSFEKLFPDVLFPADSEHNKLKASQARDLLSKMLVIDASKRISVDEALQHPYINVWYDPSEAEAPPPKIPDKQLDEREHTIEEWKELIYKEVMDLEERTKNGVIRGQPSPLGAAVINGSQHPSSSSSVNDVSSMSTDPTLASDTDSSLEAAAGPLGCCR

O=C(NCCCNc1nc(Nc2cccc(NC(=O)N3CCCC3)c2)ncc1I)c1cccs1
Activity [1]: 21%

Cc1ccc(-c2c(C(=O)CF)n(CCCO)c3ncnc(N)c23)cc1
Activity [2]: 82%
Activity (Aurora kinase B [3]): 59%

Cn1cc(C2=C(c3ccc(Cl)cc3Cl)C(=O)NC2=O)c2ccccc21
Activity [4]: 74%
Activity [5]: 98%
Activity [6]: 50%
Activity [7]: 101%
Activity (Aurora kinase B [8]): 87%
Activity [9]: 76%
Activity [10]: 12%

NCCNS(=O)(=O)c1ccc(Cl)c2ccncc12
Activity [11]: 91%
